Data taken from the Kinase Knowledgebase extract (Sharma et al. 2016).
pIC50: −log10 of the molar value. Several values for one entry are separate records, joined by “and”; a condition that tells them apart may be missing. Equal entries are not always repeated.

Target: MAPK14 (human) (UniProt Q16539)
Experiment: Inhibition of LPS Stimulated TNF Production by U937 Cells
Conditions: not given

MAPK14 (human), sequence (Q16539 whole entry, looked up): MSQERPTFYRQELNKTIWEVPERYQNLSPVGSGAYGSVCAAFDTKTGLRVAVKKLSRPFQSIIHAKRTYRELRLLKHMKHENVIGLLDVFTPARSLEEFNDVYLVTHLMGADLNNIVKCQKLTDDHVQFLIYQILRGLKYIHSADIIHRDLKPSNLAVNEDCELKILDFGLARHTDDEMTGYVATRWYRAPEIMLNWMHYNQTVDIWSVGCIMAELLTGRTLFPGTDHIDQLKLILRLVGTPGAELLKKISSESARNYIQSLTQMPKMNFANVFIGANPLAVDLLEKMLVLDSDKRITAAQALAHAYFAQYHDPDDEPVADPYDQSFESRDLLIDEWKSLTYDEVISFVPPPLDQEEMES

Going from `Cc1cnccc1-c1c[nH]nc1-c1ccc(F)cc1` to `Fc1cc(-c2c[nH]nc2-c2ccc(F)c(F)c2)ccn1`, the pIC50 rises from 5.92 to 6.29 (0.37 log units).

First: COc1ccc(CC(=O)NCc2[nH]nc(-c3ccc(F)cc3)c2-c2ccncc2)cc1OC
Second: C[C@@H](NC(=O)NCc1ccccc1)c1[nH]nc(-c2ccc(F)cc2)c1-c1ccncc1
The pIC50 of the first is 0.62 log units lower: 5.00 for the first, 5.62 for the second. The second is the more potent here.

First: C[C@@H](NS(=O)(=O)c1ccc(F)cc1)c1[nH]nc(-c2ccc(F)cc2)c1-c1ccncc1
Second: CCNC(=O)N[C@@H](CCC(=O)NC)c1[nH]nc(-c2ccc(F)cc2)c1-c1ccncc1
The pIC50 of the first is higher: 6.05 for the first, less than 6.00 for the second. The first is the more potent here.

Compared with `CN(C)CCn1cc(-c2ccnc(CCc3ccc(F)cc3)c2)c(-c2ccc(F)cc2)n1`, `COc1cc(NC(=O)CCNC(=O)Cn2nc(-c3ccc(F)cc3)c(-c3ccncc3)c2C)cc2ccccc12` is higher in pIC50: less than 5.00 for the first, 5.37 for the second.

Compared with `Cc1n[nH]c(-c2cccc(Cl)c2)c1-c1ccncc1`, `O=C(NCCCc1[nH]nc(-c2ccc(F)cc2)c1-c1ccncc1)NC1CN2CCC1CC2` (stereo unspecified) is lower in pIC50: 7.13 for the first, less than 6.00 for the second. The first is the more potent here.

For `OCCn1ncc(-c2ccnc(NCc3ccc(F)cc3)c2)c1-c1ccc(F)cc1`, the pIC50 was 6.10 and 5.22.

Same assay, conditions: concentration not given here

Compared with `Cc1c(Cl)cccc1S(=O)(=O)N[C@H](C)c1[nH]nc(-c2ccc(F)cc2)c1-c1ccncc1`, `Cc1cccc(Cl)c1S(=O)(=O)N[C@H](C)c1[nH]nc(-c2ccc(F)cc2)c1-c1ccncc1` is higher in inhibition: 71% for the first, 77% for the second.

`Cc1noc(C)c1S(=O)(=O)N[C@@H](C)c1[nH]nc(-c2ccc(F)cc2)c1-c1ccncc1` and `C[C@H](NS(=O)(=O)c1cn(C)cn1)c1[nH]nc(-c2ccc(F)cc2)c1-c1ccncc1` are the same in inhibition: 74% for the first, 74% for the second.

Going from `C[C@@H](NC(=O)c1c(Cl)cccc1Cl)c1[nH]nc(-c2ccc(F)cc2)c1-c1ccncc1` to `C[C@@H](NC(=O)c1cccs1)c1[nH]nc(-c2ccc(F)cc2)c1-c1ccncc1`, the inhibition falls from 87% to 70%.

Going from `O=S(=O)(c1ccc(C(F)(F)F)cc1)N1CCC(c2[nH]nc(-c3ccc(F)cc3)c2-c2ccncc2)CC1` to `N#Cc1ccc(S(=O)(=O)N2CCC(c3[nH]nc(-c4ccc(F)cc4)c3-c3ccncc3)CC2)cc1`, the inhibition falls from 31% to 24%.

First: CCN(CC)C(=O)N[C@H](C)c1[nH]nc(-c2ccc(F)cc2)c1-c1ccncc1
Second: C[C@@H](NC(=O)C1CCC1)c1[nH]nc(-c2ccc(F)cc2)c1-c1ccncc1
The inhibition of the first is higher: 49% for the first, 19% for the second.

Compared with `Cc1c(-c2ccncc2)c(-c2ccc(F)cc2)nn1CC(=O)NCCc1cccs1`, `C[C@H](NC(=O)c1ccccc1Br)c1[nH]nc(-c2ccc(F)cc2)c1-c1ccncc1` is higher in inhibition: 36% for the first, 39% for the second.

Compared with `O=C(NCc1[nH]nc(-c2ccc(F)cc2)c1-c1ccncc1)c1c(Cl)cc(Cl)cc1Cl`, `O=C(NCc1[nH]nc(-c2ccc(F)cc2)c1-c1ccncc1)c1c(F)cccc1F` is lower in inhibition: 100% for the first, 48% for the second.

Going from `CNC(=O)CC[C@H](NC(=O)Cc1cccc(OC)c1)c1[nH]nc(-c2ccc(F)cc2)c1-c1ccncc1` to `Cc1ccccc1S(=O)(=O)N[C@@H](C)c1[nH]nc(-c2ccc(F)cc2)c1-c1ccncc1`, the inhibition rises from 3% to 94%.

First: C[C@H](NS(=O)(=O)c1cc(S(=O)(=O)c2ccccc2)cs1)c1[nH]nc(-c2ccc(F)cc2)c1-c1ccncc1
Second: O=C(N[C@H](Cc1ccccc1)c1[nH]nc(-c2ccc(F)cc2)c1-c1ccncc1)c1ccncc1
The inhibition of the first is higher: 90% for the first, 25% for the second.

Compared with `C[C@H](NC(=O)c1ccc(F)c(F)c1F)c1[nH]nc(-c2ccc(F)cc2)c1-c1ccncc1`, `C[C@H](NC(=O)c1cc(F)cc(C(F)(F)F)c1)c1[nH]nc(-c2ccc(F)cc2)c1-c1ccncc1` is higher in inhibition: 18% for the first, 36% for the second.

Compared with `O=S(=O)(NCc1[nH]nc(-c2ccc(F)cc2)c1-c1ccncc1)c1ccccc1C(F)(F)F`, `COc1ccc(S(=O)(=O)NCc2[nH]nc(-c3ccc(F)cc3)c2-c2ccncc2)c([N+](=O)[O-])c1` is lower in inhibition: 46% for the first, 10% for the second.

First: CC(=O)Nc1ccc(S(=O)(=O)NCCc2[nH]nc(-c3ccc(F)cc3)c2-c2ccncc2)cc1
Second: CN(C)S(=O)(=O)NCc1[nH]nc(-c2ccc(F)cc2)c1-c1ccncc1
The inhibition of the first is higher: 24% for the first, 18% for the second.

Work on `O=C(NCCCc1[nH]nc(-c2ccc(F)cc2)c1-c1ccncc1)NCCCN1CCCC1` yielded an inhibition of 1%.
